From patent publication US9035059B2, “Nitrogen-containing condensed heterocyclic compound” (TAISHO PHARMACEUTICAL CO., LTD., priority 2011, dated 2015) come the findings set out here.

The test addresses MGAT2 (microsomal fraction of human small intestine) (Homo sapiens (Human), UniProt Q3SYC2). Kind of test: Test Example 2: Test of MGAT2 inhibitory action (microsomal fraction of human small intestine, 3H-labeled 2-monooleoyl glycerol). Type of test: biochemical. The settings on record: microsomal fraction of human small intestine 5 μg/ml; 4 μM oleoyl-CoA, 1.25 μM 2-monooleoyl glycerol, 0.125 μM 3H-labeled 2-monooleoyl glycerol; room temperature 30 min; read-out: Activity Value [nM] (IC50, concentration at which 50% of the products 3H-labeled dioleoyl glycerol and trioleoyl glycerol was inhibited). Here is the method: An MGAT2 inhibition test for test compounds was conducted in accordance with a partially modified version of the method described in John F. Lockwood et al., Am. J. Physiol. Endocrinol. Metab., 2003, 285, E927.
A 10 mg/mL microsomal fraction of human small intestine (duodenum- and jejunum-derived fraction purchased from Becton Dickinson Japan) was used as an enzyme source.
The test was conducted using a flat-bottom 96-well plate (Corning).
A buffer solution with final concentrations of 5 mM magnesium chloride, 1.25 mg/ml bovine serum albumin and 100 mM Tris-HCl (pH=7.5) was prepared and the microsomal fraction of human small intestine was added thereto to give a final concentration of 5 μg/ml. […] Thereafter, final concentrations of 5 mM magnesium chloride, 1.25 mg/ml bovine serum albumin, 100 mM Tris-HCl (pH=7.5), 4 μM oleoyl-CoA, 1.25 μM 2-monooleoyl glycerol and 0.125 μM ^3H-labeled 2-monooleoyl glycerol (Muromachi Yakuhin Co., Ltd.) were added thereto to give a total volume of 100 μl. This mixture was reacted at room temperature for 30 min.
The reaction was stopped by adding an equal amount of isopropanol to the reaction mixture. The substrate contained in the reaction mixture (^3H-labeled 2-monooleoyl glycerol) and the reaction products (^3H-labeled dioleoyl glycerol and trioleoyl glycerol) were separated by adsorbing them onto an octadecylsilane resin (Wako gel 50C18) (Wako Pure Chemical Industries, Ltd.), removing the substrate by use of 80% isopropanol, and then eluting the reaction products with 100% isopropanol. The amounts of the reaction products were measured with MicroBeta (PerkinElmer Japan).

Sequence of MGAT2 (microsomal fraction of human small intestine) (Q3SYC2 whole entry): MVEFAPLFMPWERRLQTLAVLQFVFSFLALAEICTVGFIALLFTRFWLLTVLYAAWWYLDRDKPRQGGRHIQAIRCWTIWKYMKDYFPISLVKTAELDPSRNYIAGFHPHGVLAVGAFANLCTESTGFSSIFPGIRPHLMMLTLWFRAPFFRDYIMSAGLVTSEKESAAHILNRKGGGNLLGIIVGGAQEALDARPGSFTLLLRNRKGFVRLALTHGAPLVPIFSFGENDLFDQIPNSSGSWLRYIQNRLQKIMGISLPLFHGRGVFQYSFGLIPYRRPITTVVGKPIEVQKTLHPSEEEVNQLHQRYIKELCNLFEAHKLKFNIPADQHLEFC

With `C[C@@H](c1ccc(C(C)(C)C)nc1)N1CCc2cc(S(=O)(=O)Nc3ccc(CCCC4CCCC4)cc3F)ccc2C1` [24-2, 2-[(1S)-1-(6-tert-butylpyridin-3-yl)ethyl]-N-[4-(3-cyclopentylpropyl)-2-fluorophenyl]-1,2,3,4-tetrahydroisoquinoline-6-sulfonamide], the IC50 is 29 nM.

`CC(C)(C)c1ccc(CCN2CCc3cc(S(=O)(=O)Nc4ccc(OCCC5CCCC5)cc4F)ccc3C2)cc1` [Working Example 8-5]: the IC50 stood at 29 nM.
